Assay results published in US10168342B2, “Lipid probes and uses thereof” (THE SCRIPPS RESEARCH INSTITUTE, priority 2015, dated 2019).

Experiments:
Experiment in all cases: isoTOP-ABPP mapping of AEA-DA-modified peptides in Neuro2a cells
Assay type in all cases: cell-based
[1] = target: T1, AEA-DA-modified peptides in Neuro2a cells (Mus musculus, UniProt Q8BMK4); settings: AEA-DA-modified peptide CKAP4 Q8BMK4 292-307, SEQ ID NO 23; probe 100 μM, 12 replicates
T1 construct: endogenous in cells; host or cells: Neuro2a
T1 sequence (Q8BMK4 whole entry): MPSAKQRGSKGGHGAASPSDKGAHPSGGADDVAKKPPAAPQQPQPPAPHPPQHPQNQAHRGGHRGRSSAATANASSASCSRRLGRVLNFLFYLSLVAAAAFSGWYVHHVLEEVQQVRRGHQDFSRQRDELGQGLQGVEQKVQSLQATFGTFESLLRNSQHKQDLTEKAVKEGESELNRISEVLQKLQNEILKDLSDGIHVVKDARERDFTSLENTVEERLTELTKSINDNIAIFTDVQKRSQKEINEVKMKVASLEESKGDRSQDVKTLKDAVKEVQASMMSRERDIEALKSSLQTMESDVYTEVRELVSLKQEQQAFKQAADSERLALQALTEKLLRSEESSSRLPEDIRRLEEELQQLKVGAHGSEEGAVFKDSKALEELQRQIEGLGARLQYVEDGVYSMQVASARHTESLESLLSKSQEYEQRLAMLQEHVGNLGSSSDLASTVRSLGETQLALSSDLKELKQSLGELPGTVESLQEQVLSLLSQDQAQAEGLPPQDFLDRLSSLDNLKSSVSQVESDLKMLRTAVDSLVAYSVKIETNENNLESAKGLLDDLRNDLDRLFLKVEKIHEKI

[2] = target: T2, AEA-DA-modified peptides in Neuro2a cells (Mus musculus, UniProt Q99J47); settings: AEA-DA-modified peptide DHRS7B Q99J47 284-300, SEQ ID NO 31; probe 100 μM, 12 replicates
T2 construct: endogenous in cells; host or cells: Neuro2a
T2 sequence (Q99J47 whole entry): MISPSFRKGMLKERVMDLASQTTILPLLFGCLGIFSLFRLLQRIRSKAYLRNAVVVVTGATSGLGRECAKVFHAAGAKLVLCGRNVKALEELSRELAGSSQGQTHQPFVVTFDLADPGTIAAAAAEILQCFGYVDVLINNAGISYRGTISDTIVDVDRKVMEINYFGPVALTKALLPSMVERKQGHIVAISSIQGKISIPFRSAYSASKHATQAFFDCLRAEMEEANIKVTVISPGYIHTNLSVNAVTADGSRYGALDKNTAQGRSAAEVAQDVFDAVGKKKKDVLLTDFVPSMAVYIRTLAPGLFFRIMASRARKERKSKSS

[3] = target: T3, AEA-DA-modified peptides in Neuro2a cells (Mus musculus, UniProt P19157); settings: AEA-DA-modified peptide GSTP1 P19157 104-117, SEQ ID NO 46; probe 100 μM, 12 replicates
T3 construct: endogenous in cells; host or cells: Neuro2a
T3 sequence (P19157 whole entry): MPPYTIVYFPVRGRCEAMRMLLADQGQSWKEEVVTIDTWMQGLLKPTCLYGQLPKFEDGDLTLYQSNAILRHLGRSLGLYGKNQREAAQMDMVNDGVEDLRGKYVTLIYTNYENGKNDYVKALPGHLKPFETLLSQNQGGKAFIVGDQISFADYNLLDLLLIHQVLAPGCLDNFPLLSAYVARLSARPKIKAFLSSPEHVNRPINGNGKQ

[4] = target: T4, AEA-DA-modified peptides in Neuro2a cells (Mus musculus, UniProt P09103); settings: probe 100 μM, 12 replicates
T4 construct: endogenous in cells; host or cells: Neuro2a
T4 sequence (P09103 20-509): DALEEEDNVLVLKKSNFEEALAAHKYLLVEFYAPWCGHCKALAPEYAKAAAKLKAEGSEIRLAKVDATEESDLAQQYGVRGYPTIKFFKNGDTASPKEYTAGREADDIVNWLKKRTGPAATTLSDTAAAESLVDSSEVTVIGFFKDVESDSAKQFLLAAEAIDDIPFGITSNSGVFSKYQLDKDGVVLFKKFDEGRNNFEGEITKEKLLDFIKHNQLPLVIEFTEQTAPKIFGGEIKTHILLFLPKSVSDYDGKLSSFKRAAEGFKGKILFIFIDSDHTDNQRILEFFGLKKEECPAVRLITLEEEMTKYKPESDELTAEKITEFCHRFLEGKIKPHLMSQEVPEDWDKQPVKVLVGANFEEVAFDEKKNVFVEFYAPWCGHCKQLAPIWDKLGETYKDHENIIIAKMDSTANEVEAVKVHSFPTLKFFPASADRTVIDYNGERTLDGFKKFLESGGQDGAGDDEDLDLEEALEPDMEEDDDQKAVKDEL

[5] = target: T5, AEA-DA-modified peptides in Neuro2a cells (Mus musculus, UniProt Q91WD5); settings: AEA-DA-modified peptide NDUFS2 Q91WD5 36-57, SEQ ID NO 67; probe 100 μM, 12 replicates
T5 construct: endogenous in cells; host or cells: Neuro2a
T5 sequence (Q91WD5 34-463): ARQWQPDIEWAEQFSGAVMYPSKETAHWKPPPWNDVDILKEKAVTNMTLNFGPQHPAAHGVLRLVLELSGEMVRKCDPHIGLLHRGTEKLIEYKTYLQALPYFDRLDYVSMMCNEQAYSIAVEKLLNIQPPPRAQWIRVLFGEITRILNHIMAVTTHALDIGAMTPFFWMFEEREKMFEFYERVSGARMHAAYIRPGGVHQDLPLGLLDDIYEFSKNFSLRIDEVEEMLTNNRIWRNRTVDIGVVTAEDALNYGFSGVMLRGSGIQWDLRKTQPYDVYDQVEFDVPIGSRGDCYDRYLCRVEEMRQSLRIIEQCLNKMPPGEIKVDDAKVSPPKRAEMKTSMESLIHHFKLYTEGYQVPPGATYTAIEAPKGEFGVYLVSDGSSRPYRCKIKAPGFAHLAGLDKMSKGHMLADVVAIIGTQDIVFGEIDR

[6] = target: T6, AEA-DA-modified peptides in Neuro2a cells (Mus musculus, UniProt Q8BKE6); settings: AEA-DA-modified peptide CYP20A1 Q8BKE6 397-414, SEQ ID NO 29; probe 100 μM, 12 replicates
T6 construct: endogenous in cells; host or cells: Neuro2a
T6 sequence (Q8BKE6 whole entry): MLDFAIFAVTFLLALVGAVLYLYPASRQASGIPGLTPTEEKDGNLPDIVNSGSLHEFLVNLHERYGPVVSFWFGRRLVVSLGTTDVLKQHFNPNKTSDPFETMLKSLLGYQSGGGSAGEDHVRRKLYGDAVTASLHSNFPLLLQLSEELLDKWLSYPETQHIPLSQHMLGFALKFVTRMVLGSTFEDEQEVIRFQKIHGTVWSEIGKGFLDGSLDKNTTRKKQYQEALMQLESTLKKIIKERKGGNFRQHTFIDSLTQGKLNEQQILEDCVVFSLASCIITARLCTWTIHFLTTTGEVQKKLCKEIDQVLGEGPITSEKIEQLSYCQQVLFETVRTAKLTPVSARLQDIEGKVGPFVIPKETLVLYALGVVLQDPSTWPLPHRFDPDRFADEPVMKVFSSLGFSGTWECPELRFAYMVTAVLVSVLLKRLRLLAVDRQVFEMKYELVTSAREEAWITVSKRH

[7] = target: T7, AEA-DA-modified peptides in Neuro2a cells (Mus musculus, UniProt Q9CQV8); settings: AEA-DA-modified peptide YWHAB Q9CQV8 196-225, SEQ ID NO 120; probe 100 μM, 12 replicates
T7 construct: endogenous in cells; host or cells: Neuro2a
T7 sequence (Q9CQV8 whole entry): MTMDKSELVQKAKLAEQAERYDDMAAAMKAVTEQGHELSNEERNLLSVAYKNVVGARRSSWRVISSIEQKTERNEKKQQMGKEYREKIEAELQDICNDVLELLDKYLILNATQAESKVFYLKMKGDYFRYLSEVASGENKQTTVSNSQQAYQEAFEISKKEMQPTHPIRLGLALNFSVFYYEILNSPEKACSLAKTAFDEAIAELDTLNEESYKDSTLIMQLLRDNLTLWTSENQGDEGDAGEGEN

[8] = target: T8, AEA-DA-modified peptides in Neuro2a cells (Mus musculus, UniProt Q60864); settings: AEA-DA-modified peptide STIP1 Q60864 506-514, SEQ ID NO 106; probe 100 μM, 12 replicates
T8 construct: endogenous in cells; host or cells: Neuro2a

[9] = target: T9, AEA-DA-modified peptides in Neuro2a cells (Mus musculus, UniProt P70699); settings: AEA-DA-modified peptide GAA P70699 904-935, SEQ ID NO 41; probe 100 μM, 12 replicates
T9 construct: endogenous in cells; host or cells: Neuro2a
T9 sequence (P70699 70-953): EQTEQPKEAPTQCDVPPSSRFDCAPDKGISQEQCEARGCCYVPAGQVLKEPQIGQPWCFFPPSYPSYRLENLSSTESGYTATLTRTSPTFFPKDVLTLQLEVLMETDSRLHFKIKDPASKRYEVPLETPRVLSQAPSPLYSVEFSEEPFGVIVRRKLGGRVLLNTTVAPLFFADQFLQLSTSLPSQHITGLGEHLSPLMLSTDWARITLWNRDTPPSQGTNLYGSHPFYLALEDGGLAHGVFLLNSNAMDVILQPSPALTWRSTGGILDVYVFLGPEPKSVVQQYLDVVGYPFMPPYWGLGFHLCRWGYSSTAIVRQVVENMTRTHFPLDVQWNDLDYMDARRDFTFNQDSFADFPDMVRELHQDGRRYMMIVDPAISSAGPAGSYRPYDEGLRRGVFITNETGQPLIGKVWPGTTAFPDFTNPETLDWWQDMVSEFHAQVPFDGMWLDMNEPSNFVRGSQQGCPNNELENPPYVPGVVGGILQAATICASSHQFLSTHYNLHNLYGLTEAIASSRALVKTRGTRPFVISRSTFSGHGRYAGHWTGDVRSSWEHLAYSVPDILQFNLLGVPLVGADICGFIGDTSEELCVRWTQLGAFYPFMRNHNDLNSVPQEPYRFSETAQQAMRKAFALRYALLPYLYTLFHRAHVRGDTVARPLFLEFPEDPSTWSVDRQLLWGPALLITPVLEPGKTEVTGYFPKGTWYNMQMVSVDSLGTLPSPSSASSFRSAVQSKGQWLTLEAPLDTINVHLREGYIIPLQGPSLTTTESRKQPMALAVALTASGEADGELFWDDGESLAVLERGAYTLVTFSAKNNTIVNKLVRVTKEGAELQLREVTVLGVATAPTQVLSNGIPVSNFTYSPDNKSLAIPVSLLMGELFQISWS

[10] = target: T10, AEA-DA-modified peptides in Neuro2a cells (Mus musculus, UniProt O08579); settings: AEA-DA-modified peptide EMD O08579 176-205, SEQ ID NO 37; probe 100 μM, 12 replicates
T10 construct: endogenous in cells; host or cells: Neuro2a
T10 sequence (O08579 whole entry): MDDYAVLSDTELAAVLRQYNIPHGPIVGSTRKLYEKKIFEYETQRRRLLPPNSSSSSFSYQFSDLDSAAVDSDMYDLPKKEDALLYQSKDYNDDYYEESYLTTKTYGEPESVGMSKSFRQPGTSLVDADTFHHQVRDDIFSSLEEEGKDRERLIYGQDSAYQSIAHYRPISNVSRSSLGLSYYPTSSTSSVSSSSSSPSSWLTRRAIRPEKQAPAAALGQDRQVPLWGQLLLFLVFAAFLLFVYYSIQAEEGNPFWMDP

[11] = target: T11, AEA-DA-modified peptides in Neuro2a cells (Mus musculus, UniProt Q8CFE6); settings: AEA-DA-modified peptide SLC38A2 Q8CFE6 171-179, SEQ ID NO 105; probe 100 μM, 12 replicates
T11 construct: endogenous in cells; host or cells: Neuro2a
T11 sequence (Q8CFE6 whole entry): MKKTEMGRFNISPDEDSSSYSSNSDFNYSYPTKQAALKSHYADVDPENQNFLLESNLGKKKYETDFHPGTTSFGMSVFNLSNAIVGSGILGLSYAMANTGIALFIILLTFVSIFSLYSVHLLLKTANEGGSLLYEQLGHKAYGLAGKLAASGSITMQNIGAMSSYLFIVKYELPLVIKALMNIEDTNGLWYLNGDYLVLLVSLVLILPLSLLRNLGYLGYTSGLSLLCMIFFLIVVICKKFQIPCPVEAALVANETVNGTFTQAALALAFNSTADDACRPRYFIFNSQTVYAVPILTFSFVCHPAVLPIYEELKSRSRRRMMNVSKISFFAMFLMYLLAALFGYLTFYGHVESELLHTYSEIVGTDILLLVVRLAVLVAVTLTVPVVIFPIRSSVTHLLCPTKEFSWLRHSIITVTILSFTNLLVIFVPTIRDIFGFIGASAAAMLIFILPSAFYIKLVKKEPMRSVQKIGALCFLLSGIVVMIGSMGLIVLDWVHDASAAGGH

C#CCCCC1(CC/C=C\C/C=C\C/C=C\CCCC(=O)NCCO)N=N1 [AEA-DA, (5Z,8Z,11Z)-N-(2-hydroxyethyl)-14-(3-(pent-4-yn-1-yl)-3H-diazirin-3-yl)tetradeca-5,8,11-trienamide]
Times observed [1]: 7
Times observed [2]: 2
Times observed [3]: 4
Times observed ([4]; AEA-DA-modified peptide P4HB P09103 135-165, SEQ ID NO 77): 3
Times observed ([4]; AEA-DA-modified peptide P4HB P09103 233-250, SEQ ID NO 78): 10
Times observed [5]: 3
Times observed [6]: 8
Times observed [7]: 8
Times observed [8]: 3
Times observed [9]: 11
Times observed [10]: 2
Times observed [11]: 4
